Source: patent publication US20090270386A1, “THERAPEUTIC COMPOUNDS” (ALLERGAN, INC., priority 2008, published 2009)

What was measured:
normotensive dogs = test: Intraocular pressure reduction in normotensive dogs; type: in vivo
Description: U.S. Pat. No. 7,091,231 describes the methods used for these in vivo tests.
Compounds such as those described in the above are tested in vivo to measure its ability to reduce intraocular pressure. Compound 14a is tested in normotensive dogs.

[1] = test system: laser-induced hypertensive monkeys; test: Intraocular pressure reduction in laser-induced hypertensive monkeys; type: in vivo
[2] = test system: lashes and adjacent hairs of glaucoma patients; test: Observation of eyelash/hair growth in glaucoma patients treated in one eye; type: in vivo, humans; conditions: glaucoma patients treated unilaterally
From the text: In the course of treating patients having glaucoma, treatment may only be appropriate in one eye. […] The lash appearance on the lids of the treated eyes would have appeared quite attractive if it represented a bilateral phenomenon. As a result of its asymmetric nature, the long lashes on one side could be construed as disturbing from a cosmetic standpoint. A systemic examination was preformed as a result of the asymmetric phenomenon. It soon became apparent that this altered appearance was not an isolated finding. […] Definite differences could be identified to varying degrees in the lashes and adjacent hairs of all patients who were taking the drug on a unilateral basis for longer than 6 months.
The changes in the lashes were apparent on gross inspection in several patients once attention was focused on the issue. In those with light colored hair and lashes, the differences were only seen easily with the aid of the high magnification and lighting capabilities of the slit lamp biomicroscope. In the course of glaucoma follow-up examination, attention is generally immediately focused on the eye itself. As a result of the high power magnification needed only one eye is seen at a time and the eye is seen at a high enough power that the lashes are not in focus. […]

| Compound | intraocular pressure (IOP) change from baseline (normotensive dogs) | IOP change from baseline [1] | lash appearance in treated eye versus non-treated eye [2] |
| --- | --- | --- | --- |
| CC(=O)OCCc1cc(Cl)cc(OCC2C(O)CC(Cl)C2CC=CCCCC(=O)OCCO)c1 (centres unmarked) [Compound 16a] | decreases from baseline | decreases from baseline | – |
| CC(=O)OCCc1cc(Cl)cc(OCC2C(O)CC(Cl)C2CC=CCCCC(=O)OCCN2CCOCC2)c1 (centres unmarked) [Compound 16b] | decreases from baseline | decreases from baseline | – |
| COCc1cc(Cl)cc(OCC2C(O)CC(Cl)C2CC=CCCCC(=O)OCCO)c1 (centres unmarked) [Compound 22a] | decreases from baseline | decreases from baseline | – |
| COCc1cc(Cl)cc(OCC2C(O)CC(Cl)C2CC=CCCCC(=O)OCCN2CCOCC2)c1 (centres unmarked) [Compound 22b] | decreases from baseline | decreases from baseline | – |
| O=C(OCCO)c1ccc(CCCC2C(Cl)CC(O)C2COc2cc(Cl)cc(Cl)c2)s1 (centres unmarked) [Compound 33a] | decreases from baseline | decreases from baseline | – |
| O=C(OCCN1CCOCC1)c1ccc(CCCC2C(Cl)CC(O)C2COc2cc(Cl)cc(Cl)c2)s1 (centres unmarked) [Compound 33b] | decreases from baseline | decreases from baseline | – |
| O=C(OCCO)c1ccc(CCCC2C(Cl)CC(O)C2COc2cc(Cl)cc(CO)c2)s1 (centres unmarked) [Compound 34a] | decreases from baseline | decreases from baseline | – |
| O=C(OCCN1CCOCC1)c1ccc(CCCC2C(Cl)CC(O)C2COc2cc(Cl)cc(CO)c2)s1 (centres unmarked) [Compound 34b] | decreases from baseline | decreases from baseline | – |
| Cc1cc(C)cc(OCC2C(O)CC(Cl)C2CCCc2ccc(C(=O)OCCO)s2)c1 (centres unmarked) [Compound 35a] | decreases from baseline | decreases from baseline | – |
| Cc1cc(C)cc(OCC2C(O)CC(Cl)C2CCCc2ccc(C(=O)OCCN3CCOCC3)s2)c1 (centres unmarked) [Compound 35b] | decreases from baseline | decreases from baseline | – |
| O=C(OCCO)c1ccc(CCCC2C(=O)CCC2COc2cc(Cl)cc(CO)c2)s1 (centres unmarked) [Compound 46a] | decreases from baseline | decreases from baseline | – |
| O=C(OCCN1CCOCC1)c1ccc(CCCC2C(=O)CCC2COc2cc(Cl)cc(CO)c2)s1 (centres unmarked) [Compound 46b] | decreases from baseline | decreases from baseline | – |
| O=C(OCCO)c1ccc(CCCC2C(Cl)CCC2COc2cc(Cl)cc(CO)c2)s1 (centres unmarked) [Compound 51a] | decreases from baseline | decreases from baseline | – |
| O=C(OCCN1CCOCC1)c1ccc(CCCC2C(Cl)CCC2COc2cc(Cl)cc(CO)c2)s1 (centres unmarked) [Compound 51b] | decreases from baseline | decreases from baseline | – |
| N#CC1CC(O)C(COc2cc(Cl)cc(Cl)c2)C1CCCc1ccc(C(=O)OCCO)s1 (centres unmarked) [Compound 58a] | decreases from baseline | decreases from baseline | – |
| N#CC1CC(O)C(COc2cc(Cl)cc(Cl)c2)C1CCCc1ccc(C(=O)OCCN2CCOCC2)s1 (centres unmarked) [Compound 58b] | decreases from baseline | decreases from baseline | – |
| O=C(OCCO)c1ccc(CCCC2=CCC(O)C2COc2cc(Cl)cc(Cl)c2)s1 (centres unmarked) [Compound 68a] | decreases from baseline | decreases from baseline | – |
| O=C(OCCN1CCOCC1)c1ccc(CCCC2=CCC(O)C2COc2cc(Cl)cc(Cl)c2)s1 (centres unmarked) [Compound 68b] | decreases from baseline | decreases from baseline | – |
| O=C(OCCO)c1ccc(CCCC2C(F)CC(O)C2COc2cc(Cl)cc(Cl)c2)s1 (centres unmarked) [Compound 70a] | decreases from baseline | decreases from baseline | – |
| O=C(OCCN1CCOCC1)c1ccc(CCCC2C(F)CC(O)C2COc2cc(Cl)cc(Cl)c2)s1 (centres unmarked) [Compound 70b] | decreases from baseline | decreases from baseline | – |
| CCNC(=O)CCC/C=C\C[C@@H]1[C@@H](/C=C/[C@@H](O)CCc2ccccc2)[C@H](O)C[C@@H]1O [bimatoprost] | – | – | longer, thicker, and fuller in the treated eye |
